Measured values reported in patent publication US8158811B2, “Unsaturated fatty hydroxy acid derivatives and the dermocosmetologic use thereof” (Pierre Fabre Dermo-Cosmetique, priority 2005, dated 2012).

Key:
ABCG1 = experiment: keratinocyte differentiation, real-time RT-PCR of ABCG1 transcripts; format: cell-based, human; conditions: NHK, 48 hours
Protocol: (§1) Normal human keratinocytes (NHK) proliferate and differentiate in vitro, forming stratified layers which mimic the basal organisation of the skin. Extracellular calcium concentrations in excess of 0.1 mM initiate a cascade of genome and non-genome events which take the keratinocytes from a proliferative phase towards a differentiation phase. Keratinocyte differentiation can then be evaluated by studying the expression of several markers such as keratins 1 and 10, transglutaminase 1, desaturase DES2, involucrine, FATP4 and ABCG1 transporters. We therefore evaluated the effect of certain hydroxyalcene carboxylic acids in an in vitro culture model.
(§2) Normal human keratinocytes are isolated from skin explants. They are cultured in KSFM medium (Gibco) with a low calcium content (0.1 mM) containing 25 μg/ml of BPE (bovine pituitary extract) and […] of EGF (epithelium growth factor). 24 hours after culturing, differentiation is triggered by the addition of calcium (final concentration 1.2 mM). The active ingredients are added or not at the same time as calcium at concentrations of 100 and 1 μg/ml in order to determine whether or not they have a potentialising effect on differentiation. Cells were then analysed 48 hours after the addition of calcium and these products.
(§3) Total RNA was extracted under cold conditions from keratinocytes.
(§4) After reverse transcription of mRNA into cDNA, PCRs were made up in 96 well plates (iCycler quantitative PCR apparatus, BioRad). Expression of transcripts of transglutaminase, desaturase (DES2), ABCG1 and FATP4 were standardized with respect to the expression of reference genes (GAPDH, UBC, HPRT).

transglutaminase 1 (TG1) = experiment: keratinocyte differentiation, real-time RT-PCR of transglutaminase 1 transcripts; format: cell-based, human; conditions: NHK, 48 hours
Protocol: as §1, §2, §3, §4

[1] = test system: membrane lipids, fibroblast line L929; experiment: TBARS test, lipid peroxidation after H2O2/Fe2+/Fe3+; format: cell-based, murin; conditions: 0.02 ng/ml, pretreated 16 hours
Excerpt: In order to evaluate membrane changes, we measured lipid peroxidation by in vitro assay of complexes between the products of lipid oxidation and thiobarbituric acid. These complexes are called TBARS (thiobarbituric acid reactive substances) and give the test its name: TBARS Test.
In order to mimic chemical oxidative stress, we treated a fibroblast line (L929) with a complex consisting of hydrogen peroxide (H2O2) and iron (Fe^2+/Fe^3+) thus reconstituting the Fenton reaction which is the source of oxygenated free radicals and particularly the hydroxyl radical (OH°) (D. A Vessey et al. 1992): H2O2+Fe^2+→OH°+OH^−+Fe^3+
The products were evaluated on a murin fibroblast line L929. Cells were pretreated with different concentrations of the product for 16 hours and were then stimulated with the H2O2/Fe^2+/Fe^3+ complex (200 μM−1 mM) for 1 hour. • Stock solutions: 100 mg/ml ethanol, 4° C. • Final solutions: 0.02 ng/ml.
Peroxidation of membrane lipids was analysed by measuring TBARS (Protocol ref. PLN°2, according to Morliere et al, 1991).
[…]. TBARS assays are therefore expressed in pmole/μg of protein. Proteins and TBARS are assayed in the intracellular medium.
Using the TBARS calculation in pmole/μg protein, we calculated the protective efficacy of various products against the oxidation of lipid membranes.
Four separate experiments were carried out. Several compounds were evaluated in the course of these experiments (the test only allows 10 molecules to be evaluated at one time). The compounds were evaluated several times and were chosen as a function of the results obtained in another test which also measured anti-radical activity (assay test for activated oxygen species).
The model used in this experiment (Fenton reaction) triggers considerable lipid peroxidation of the L929 fibroblasts. This massive release of the hydroxyl radical OH° thus generates oxidative stress in the cells, particularly in the membranes. However, in this type of oxidative reaction, the products resulting from lipid peroxidation are internalized in the cells and TBARS are therefore assayed in the intracellular medium.

[2] = test system: intracellular AOSs, fibroblast line L929; experiment: in vitro assay of intracellular AOSs (H2DCF-DA probe) after H2O2/iron oxidative stress; format: cell-based, murin; conditions: pre-incubation 3 h, L929
Excerpt: We set up an in vitro study model of oxidative stress induced by H2O2/iron as H2O2 generates huge amounts of intracellular AOSs as a result of a chain reaction triggered by oxidation of membrane lipids.
This technique is based on the use of a fluorescent probe, 6-carboxy-2′,7′-dichlorodihydro fluorescein diacetate, di (acetoxymethyl ester) (H2DCF-DA) which once it penetrates into the cell is deacetylated by intracellular esterases and thus forms H2DCF. This product is oxidized by intracellular AOSs into a highly fluorescent compound: 2′,7′-dichlorofluorescein (DCF) (Suematsu M et al., 1996, Free Radicals Practical Approach, Punchard ed. P 83-99).
The materials and methods used for in vitro assay of intracellular AOSs are given below. • a) Cell tool • Cutaneous murin fibroblast cell line L929. • b) Materials • 96 well flat based microplate. • Cytofluor II cytofluorameter: Ref. PERCEPTIVE BIOSYSTEMS. • c) Reagents • Cell culture reagents: • Dulbecco's Modified Eagle Medium as the culture medium (DMEM) • Foetal calf serum • Phosphate buffer PBS pH 7.4 • Trypsin EDTA (1X) Fluorescent probe • 6-carboxy-2′,7′-dichlorodihydrofluorescein diacetate, di(acetoxymethyl ester) (PM.675,43) Cell stimulation products • Hydrogen peroxide (H2O2) 3% Ref. GIFRER (Gifrer Barbezat Laboratory) • Ferrous ammonium sulphate (Fe^2+) • Ferric ammonium sulphate (Fe^3+) • d) Products tested:
For the evaluation of unsaturated fatty hydroxy acid derivatives, the dilutions are prepared in freshly prepared culture medium for a concentration range of 0.02, 0.2, 2 and 20 ng/ml. • e) Protocol. Cell culturing.
Cells from the fibroblast line L929 were cultured in 96-well flat base microplates in 100 μl of DMEM supplemented with 10% foetal calf serum. These were incubated overnight at 37° C. in a humid atmosphere at 5% CO2. The blank plate without cells was evaluated using 6 wells.
Dilutions of the products to be tested and reference molecule were made up in culture medium without foetal calf serum then deposited in 7 wells at a rate of 100 μl per well.
Cells were then incubated for 3 hours at 37° C. in a humid atmosphere at 5% CO2.
Cells were rinsed in PBS 1X at a rate of 100 μl per well. They were then incubated for 30 minutes at 37° C. in a humid atmosphere at 5% CO2 with 50 μl of the H2DCF-DA probe at 5 μM.
After 30 minutes of contact with the probe alone, cells were incubated for 30 minutes at 37° C. in a humid atmosphere at 5% CO2 with the addition of 25 μl of H2O2 at 800 μM and 25 μl of ferrous iron and ferric iron solution at 8 mM in order to obtain final concentrations of 200 μM of H2O2 and 2 mM of ferrous iron and ferric iron.
Cells were then rinsed with PBS 1X at a rate of 100 μl per well then incubated for 30 minutes at 37° C. in a humid atmosphere at 5% CO2 with 100 μl of PBS 1X.
This incubation for 1 h 30 minutes at 37° C. allows intracellular esterases to deacetylate the probe into H2DCF which can be oxidized by the intracellular AOSs into DCF: a fluorescent compound whose formation is proportional to the quantity of intracellular AOSs.
The intensity of fluorescence is read on a cytofluorimeter at λexcitation=485 nm and λemission=530 nm. This reflects the amount of intracellular AOS produced.
The ratio below makes it possible to calculate the % protection against the production of intracellular AOSs for each product concentration tested (because the intensity of fluorescence or IF reflects the release of intracellular AOSs)
• Pre-incubation: 3 h • Number of tests=3 for all compounds. • Number of tests=18 for vit. E

FATP4 = experiment: keratinocyte differentiation, real-time RT-PCR of FATP4 transcripts; format: cell-based, human; conditions: NHK, 48 hours
Protocol: as §1, §2, §3, §4

desaturase DES2 = experiment: keratinocyte differentiation, real-time RT-PCR of DES2 transcripts; format: cell-based, human; conditions: NHK, 48 hours
Protocol: as §1, §2, §3, §4

Interleukin 8 = experiment: release of Interleukin 8 by keratinocytes NHK stimulated with PMA + calcium ionophore A23187 (ELISA); format: cell-based, human; conditions: 3 μg/ml, keratinocytes, PMA + A23187 6 hours
Protocol: In this study, carried out using 96 well plates, we evaluated the activity of hydroxyl alkine acids on the production of Interleukin 8 produced in the keratinocytes by phorbol ester PMA and calcium ionophore A23187.
A suspension of keratinocytes in supplemented KSFM was divided between 96 well plates (3.10^4 cells/wells) and incubated for 16 hours at 37° C. under an atmosphere of 5% CO2. The keratinocytes were then rinsed with PBS in order to eliminate non adhering cells then exposed to the products to be tested included in non supplemented KSFM (which could interfere with the assay).
The concentration tested in culture was 3 μg/ml. This was retained after a preliminary test to evaluate cytotoxicity (neutral red) and is not cytotoxic.
3 wells were used for each treatment. Cells were preincubated for 60 minutes with the products to be tested then stimulated, in parallel to negative controls without stimulant: Phorbol Myristate Acetate (PMA) 1 μm+Calcium ionophore (A23187) 0.1 μm.
Incubation for 6 hours at 37° C. in a humid air atmosphere containing 5% CO2.
The culture medium for each of the wells was recovered, centrifuged at 3000 rpm and stored at −80° C.
Cytokine assay: IL8 was assayed using the ELISA kit immunoenzyme method (immunotech).
The results are given as percentage activity/stimulated control.
The compounds according to the invention were evaluated in terms of anti-inflammatory activity on the release of Interleukin 8 by human keratinocytes NHK stimulated by phorbol ester PMA+calcium ionophore A23187.

PAR-2 receptors = target: T1, PAR-2 receptors (Homo sapiens, UniProt P55085); experiment: calcium flux induced by trypsin stimulation of PAR-2 receptors in HaCaT keratinocytes (Fluo-4/AM); format: cell-based; conditions: trypsin 10 nM
T1 construct: PAR-2 receptors for trypsin present in human keratinocytes from the HaCaT line; endogenous in cells; host or cells: HaCaT human keratinocytes
T1 sequence (P55085 26-397): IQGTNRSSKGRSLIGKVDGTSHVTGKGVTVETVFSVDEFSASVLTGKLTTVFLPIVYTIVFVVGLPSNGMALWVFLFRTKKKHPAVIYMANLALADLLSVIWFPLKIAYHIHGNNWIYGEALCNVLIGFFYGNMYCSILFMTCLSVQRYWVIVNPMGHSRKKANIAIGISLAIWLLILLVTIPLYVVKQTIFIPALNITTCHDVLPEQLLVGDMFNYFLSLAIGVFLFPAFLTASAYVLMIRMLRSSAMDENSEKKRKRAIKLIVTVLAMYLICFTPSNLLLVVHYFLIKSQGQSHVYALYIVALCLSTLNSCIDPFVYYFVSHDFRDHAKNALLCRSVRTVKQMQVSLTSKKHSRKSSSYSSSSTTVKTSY
Excerpt: We therefore considered evaluating anti-PAR-2 activity of hydroxyl acid derivatives of formula I on the influx of intracellular calcium induced after specific stimulation by PAR-2 receptors for trypsin present in human keratinocytes from the HaCaT line.
This technique is based on the use of an esterified fluorescent probe by an AM group which facilitates its penetration by passive diffusion into the cell. The probe used is Fluo-4/AM. Only the de-esterified form bound to the calcium ion is excitable in fluorescence (at 485 nm) and emits at 535 nm.
In vitro, at the cell level, specific stimulation of the PAR-2 receptors by trypsin leads to mobilisation of intra and extracellular calcium detected with the aid of the fluorescent probe.

Row | Induction Factor vs Control (CaCl2 1.2 mM) TG1 (transglutaminase 1 (TG1); 1 μg/ml) | Induction Factor vs Control (CaCl2 1.2 mM) TG1 (transglutaminase 1 (TG1); 100 μg/ml) | Induction Factor vs Control (CaCl2 1.2 mM) DES2 (desaturase DES2; 1 μg/ml) | Induction Factor vs Control (CaCl2 1.2 mM) DES2 (desaturase DES2; 100 μg/ml) | % inhibition (PAR-2 receptors; 10 μg/ml) [%] | % stimulation (PAR-2 receptors; 10 μg/ml) [%] | % inhibition (PAR-2 receptors; 30 μg/ml) [%] | % stimulation (PAR-2 receptors; 30 μg/ml) [%] | % inhibition (PAR-2 receptors; 100 μg/ml) [%] | % stimulation (PAR-2 receptors; 100 μg/ml) [%] | Structure (SMILES) | Induction Factor vs Control (CaCl2 1.2 mM) ABCG1 (ABCG1; 1 μg/ml) | Induction Factor vs Control (CaCl2 1.2 mM) ABCG1 (ABCG1; 100 μg/ml) | % membrane lipid protection, Mean [1] [%] | Percentage inhibition of the intracellular production of AOS ([2]; 0.02 ng/ml) [%] | Percentage inhibition of the intracellular production of AOS ([2]; 0.2 ng/ml) [%] | Percentage inhibition of the intracellular production of AOS ([2]; 2 ng/ml) [%] | Percentage inhibition of the intracellular production of AOS ([2]; 20 ng/ml) [%] | Induction Factor vs Control (CaCl2 1.2 mM) FATP4 (FATP4; 1 μg/ml) | Induction Factor vs Control (CaCl2 1.2 mM) FATP4 (FATP4; 100 μg/ml) | % inhibition of IL-8 release (Interleukin 8)
1 | 1.5 | 0.9 | 1.7 | 1.9 |  |  |  |  |  |  | O=C(O)C(F)=CCCCCO (mixture of isomers) [n=3, R=H, Rn=H, R1=F] | 1.5 | 1.2 | 38.14 | 3 | −3 | −32 | −51 | 1.2 | 1.2 | 
2 | 1.7 |  | 2.8 |  |  |  |  |  |  |  | O=C(O)C(F)=CCCCCCCCCCCCCCCCO (mixture of isomers) [n=14, R=H, Rn=H, R1=F] | 4.0 |  | 35.30 | 6 | −17 | −26 | −42 | 1.0 |  | 
3 | 1.5 |  | 1.8 |  |  |  |  |  |  |  | O=C(O)/C=C/CCCCCCO [n=5, R=H, Rn=H, R1=H, 9-hydroxy-nona-2t-enoic acid] | 2.7 |  |  | 56 | 47 | 46 | 36 | 1.0 |  | 
4 |  |  |  |  | −10 | 14.68 | 8 | 12.90 | 23 | 11.37 | O=C(O)/C=C/CCCCCCCCCCCCCCCO [n=14, R=H, Rn=H, R1=H, 18-hydroxy-octadec-2t-enoic acid] |  |  |  |  |  |  |  |  |  | Non-active
